Reference: patent publication US20030129189A1, “Tumor necrosis factor-gamma” (priority 1994, published 2003)

T1: CD27 on transiently transfected cells (UniProt P26842 20-260, limits assumed)
T1 construct: whole, on cells
T1 sequence (looked up): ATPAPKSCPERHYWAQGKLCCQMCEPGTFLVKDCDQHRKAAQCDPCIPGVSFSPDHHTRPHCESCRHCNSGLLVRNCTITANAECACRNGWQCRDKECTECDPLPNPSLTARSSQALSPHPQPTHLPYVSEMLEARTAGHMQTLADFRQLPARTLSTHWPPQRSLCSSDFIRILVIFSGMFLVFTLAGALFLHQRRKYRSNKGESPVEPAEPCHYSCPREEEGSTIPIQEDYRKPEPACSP

B1: FLAG-tagged soluble TNF-gamma-beta (aa 72-251) (ligand)
chain: LKGQEFAPSHQQVYAPLRADGDKPRAHLTVVRQTPTQHFKNQFPALHWEHELGLAFTKNRMNYTNKFLLIPESGDYFIYSQVTFRGMTSECSEIRQAGRPNKPDSITVVITKVTDSYPEPTQLLMGTKSVCEVGSNWFQPIYLGAMFSLQEGDKLMVNVSDISLVDYTKEDKTFFGAFLL
notes: also called FLAG-TL1β; FLAG-TNF-gamma-beta; not shown: The N-terminal FLAG tag (pFLAG-CMV-1 vector) and any vector linker

Tests used:
Raji = test: TNF-gamma activity on Raji cells; format: cell-based; set-up: key: The numbers of “+” indicate the relative level of activities.; ++: The numbers of “+” indicate the relative level of activities.; +++: The numbers of “+” indicate the relative level of activities.; “−” indicates no detected activity at the concentration range tested; conditions: human Burkitt's lymphoma
Description: The adherent target cells were prepared from confluent cultures by trypsinization in PBS, and non-adherent target cells were harvested from stationary cultures and washed once with medium. Target cells were suspended at 3×10^5 cells/ml in medium containing 10% FCS. 0.1 ml aliquots were dispensed into 96-well flat-bottomed microtiter plates containing 0.1 ml serially diluted test samples of cells (WEHI 164 and L929). Incubation was continued for 70 hours. TNF-alpha, TNF-beta and bacterially-produced TNF-gamma were added at a 0.5 μg/ml concentration. The cytotoxicity and proliferation activity was quantified using an MTS assay performed by the addition of 20 μl of MTS and phenazine methosulfate (PMS) solution to each well. After a three hour incubation, the OD at 492 nm was measured by an ELISA plate reader. The OD492 is proportional to the number of viable cells in the wells. The percent of cytotoxicity was calculated as follows: […]. The photographs were taken after 72 hours.

[1] = tested on: chorioallantoic membrane (CAM); test: Chicken embryonic chorioallantoic membrane (CAM) angiogenesis assay; format: in vivo; conditions: 250 ng bacterially-produced TNF-gamma mixed with FGF-2 (100 ng) or VEGF (250 ng)
Description: The CAM assay was carried out essentially as described by Nguyen and colleagues (Microvasc. Res. 47:31-40 (1994)) and Iruela-Arispe and Dvorak (Thromb. Haemost. 78:672-677 (1997)). The method is based on the growth of new capillary vessels into a collagen gel pellet placed directly on the chorioallantoic membrane (CAM). Angiogenic factors such as […], FGF-2 (100 ng), VEGF (250 ng), or bFGF (10, 500, and 1000 ng) were embedded in collagen gel pellets and placed in contact with the CAM. Quantification of angiogenesis in the gels was carried out 24 hours after the placement of the gel pellets by using a Nikon fluorescence microscope. The images were transferred to a Power PC 100 AV, using a CCD Sony camera. Fluorescence intensity was evaluated with NH Image 1.61 software. Fluorescence intensity for the positive controls (which contained an angiogenic factor alone) was considered as the maximum angiogenic response, and set, arbitrarily, at 100. Due to the variability of the assay, inhibition greater than 20% was considered significant.
As an experimental determination of the effect of TNF-gamma on the FGF-2- or VEGF-induced angiogenesis, bacterially-produced TNF-gamma (250 ng) was mixed with either FGF-2 (100 ng) or VEGF (250 ng) and embedded in collagen gel pellets. The pellets were then placed in contact with the CAM as described above.

I-kappaBa in U-937 cells = test: I-kappaBa degradation (Western blot); format: cell-based; conditions: 0.1-1.0 μg/ml, 12 hours
Description: These experiments were elaborated by determining a degradation profile for I-kappaBa in U-937 cells in response to treatment with TNF-gamma. A time course of I-kappaBa degradation was determined by Western blot analysis, a technique that is well-known by one of ordinary skill in the art and has been described by Singh and Aggarwal (J. Biol. Chem. 270:24995-25000 (1995)).

[2] = tested on: c-Jun kinase (JNK) in U-937 cells; test: JNK kinase activation assay; format: cell-based; conditions: 0.1 to 3.0 μg/ml
Description: The cellular kinase designated c-Jun kinase (JNK) is an early event in cellular activation. The activation of JNK by TNF-gamma was analyzed as an additional method of determining cellular reaction to treatment with TNF-gamma. The JNK kinase activation assay is well-known by one of skill in the art and has been described by Derijard and colleagues (Cell 76:1025-1029 (1994)). After treatment of U-937 cells with 0.1 to 3.0 μg/ml of TNF-gamma for 12 hours, the cells were harvested and assayed for JNK kinase activity. By 6 and 12 hours, JNK activity had increased 2- and 3.6-fold, respectively.

[3] = target: T1, CD27 on transiently transfected cells; test: flow cytometry on transiently transfected cells
Description: One million cells, in 0.1 ml of FACS buffer (PBS, 0.1% BSA, 0.1% NaN₃), were incubated with 0.1-1 microgram of protein or antibody at RT for 15 min. The cells were washed with 3 ml of FACS buffer, reacted with biotinylated primary antibody, and stained with PE-conjugated secondary antibody at RT for 15 min. Cells were then washed again, resuspended in 0.5 microgram/ml of propidium iodide, and live cells were gated and analyzed on a FACScan using the CellQuest software (BD Biosciences).

Row | Molecule | Adhesion (Raji) | Differentiation (Raji) | Proliferation (Raji) | new capillary growth into collagen gels (FGF-2- or VEGF-induced angiogenesis) [1] | I-kappaBa degradation (I-kappaBa in U-937 cells) | increase in JNK activity ([2]; by 6 hours) | increase in JNK activity ([2]; by 12 hours) | binding result [3]
1 | TNF-gamma: new member of the tumor necrosis factor family; the term refers to TNF-gamma-alpha and/or TNF-gamma-beta | −− | −− | − | markedly inhibited new capillary growth into collagen gels | completely degraded | 2 fold | 3.6 fold | 
2 | B1 |  |  |  |  |  |  |  | no binding
